Structures are written as SMILES.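 Step 1: Grow cells in 96-well plates. Step 2: Expose to compound for 48 hours at 5 concentrations. Step 3: Interpolate endpoints linearly; if unreached, use highest concentration. TGI: concentration producing complete growth inhibition.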

Among the test systems are LOX IMVI melanoma; CCRF-CEM leukemia; SR leukemia; MDA-N; MDA-MB-435; SW-620 colon; OVCAR-5 ovarian; 786-0 renal; SF-268 CNS; M19-MEL melanoma; KM20L2 colon.
Common to all, as to assay: growth of human tumour cells (NCI), 48 h

Consider `O=S(=O)(c1ccc(NC2=NC(c3ccc(O)cc3)(c3ccccc3O)c3ccccc32)cc1)c1ccc(NC2=NC(c3ccc(O)cc3)(c3ccccc3O)c3ccccc32)cc1` (centres undefined), for which the TGI with LOX IMVI melanoma was over 100 µM; in the experiment with CCRF-CEM leukemia, over 100 µM; in the experiment with SR leukemia, over 49.6 µM; with MDA-N, over 23.1 µM; in the experiment with MDA-MB-435, over 24.6 µM; in the experiment on SW-620 colon it was over 100 µM. The TGI was over 73.6 µM in the experiment with OVCAR-5 ovarian, over 28.8 µM in the experiment on 786-0 renal and over 44.5 µM with SF-268 CNS.

In the case of `Cc1ccc(OCC2OC(n3cnc4c(Cl)nc(N)nc43)CC2Oc2ccc(C)cc2)cc1` (centres undefined), the TGI in the experiment on LOX IMVI melanoma, with CCRF-CEM leukemia, in the experiment on SR leukemia, in the experiment with MDA-N, with MDA-MB-435 and in the experiment with SW-620 colon was over 100 µM each time. The TGI in the experiment on OVCAR-5 ovarian, in the experiment with 786-0 renal and in the experiment with SF-268 CNS was over 100 µM each time.

Take `COc1c(O)c(C=O)c2c(O)c(-c3c(C)cc4c(C(C)C)c(OC)c(O)c(C=O)c4c3O)c(C)cc2c1C(C)C`: the TGI with M19-MEL melanoma came out at 12.4 µM; in the experiment with KM20L2 colon, 19.9 µM; in the experiment with CCRF-CEM leukemia, 37.6 µM; with SR leukemia it was 22.7 µM; in the experiment on SW-620 colon, 17.7 µM; in the experiment with OVCAR-5 ovarian, 20.7 µM. Further, the TGI in the experiment on SF-268 CNS came to 23.5 µM.

For the molecule `Cc1cccc(Nc2nn3c(=O)c4c5c(sc4nc3s2)CCCC5)c1`, the TGI in the experiment on LOX IMVI melanoma was 23.1 µM; with CCRF-CEM leukemia, over 100 µM; with SR leukemia, over 100 µM; with MDA-N, over 100 µM; in the experiment on MDA-MB-435, over 100 µM; in the experiment with SW-620 colon, over 100 µM. In addition, the TGI in the experiment on OVCAR-5 ovarian, in the experiment on 786-0 renal and in the experiment on SF-268 CNS was over 100 µM each time.

`OCCO/N=C1\C(c2c(O)[nH]c3ccccc23)=Nc2ccccc21`: the TGI with LOX IMVI melanoma, in the experiment on CCRF-CEM leukemia, with SR leukemia, in the experiment with MDA-N, with MDA-MB-435 and in the experiment with SW-620 colon was over 100 µM each time. Besides, the TGI with OVCAR-5 ovarian, with 786-0 renal and in the experiment on SF-268 CNS was over 100 µM each time.

In the case of `C=C/C(C)=C\CC1[C@](C)(O)CC[C@H]2C(C)(C)C(=O)CC[C@]12C` (some centres undefined), the TGI in the experiment on LOX IMVI melanoma was over 100 µM; with CCRF-CEM leukemia it was over 100 µM; in the experiment on SR leukemia, 66.5 µM; in the experiment with MDA-N, over 100 µM; in the experiment with MDA-MB-435 it was over 100 µM; in the experiment with SW-620 colon, over 100 µM. The TGI with OVCAR-5 ovarian, with 786-0 renal and in the experiment on SF-268 CNS was over 100 µM each time.

Consider `Nc1ccc(S(=O)(=O)c2ccc(NCN3C(=O)NC(=O)C(=O)C3=O)cc2)cc1`, for which the TGI in the experiment with LOX IMVI melanoma, with CCRF-CEM leukemia, in the experiment on SR leukemia, in the experiment with MDA-N, in the experiment with MDA-MB-435 and with SW-620 colon was over 100 µM in each case. Besides, the TGI in the experiment on OVCAR-5 ovarian, with 786-0 renal and with SF-268 CNS was over 100 µM in each case.

For the molecule `O=[N+]([O-])c1ccc2sc(C=Nc3cnccn3)cc2c1`, the TGI was 60.6 µM in the experiment with LOX IMVI melanoma; 40.4 µM in the experiment with CCRF-CEM leukemia; 45.5 µM with SR leukemia; over 100 µM in the experiment with MDA-N; over 100 µM with MDA-MB-435; over 100 µM in the experiment on SW-620 colon. In addition, the TGI in the experiment with OVCAR-5 ovarian, with 786-0 renal and with SF-268 CNS was over 100 µM throughout.

For `C[N+](C)(C)c1ccc(C(N)C(=O)O)cc1` (centres undefined), the TGI in the experiment with LOX IMVI melanoma, in the experiment on CCRF-CEM leukemia, with SR leukemia, in the experiment with MDA-N, with MDA-MB-435 and in the experiment with SW-620 colon was over 100 µM throughout. The TGI in the experiment with OVCAR-5 ovarian, in the experiment with 786-0 renal and in the experiment on SF-268 CNS was over 100 µM throughout.

Regarding `CCNC(=S)N=Nc1c(O)[nH]c2ccc([N+](=O)[O-])cc12`, the TGI in the experiment on LOX IMVI melanoma, with CCRF-CEM leukemia, with SR leukemia, in the experiment with MDA-N, in the experiment on MDA-MB-435 and in the experiment on SW-620 colon was over 100 µM throughout. Further, the TGI with OVCAR-5 ovarian is over 100 µM; in the experiment on 786-0 renal it was 69 µM; in the experiment with SF-268 CNS, over 100 µM.

As to `CSCSSC`, the TGI in the experiment on LOX IMVI melanoma, in the experiment on CCRF-CEM leukemia, in the experiment with SR leukemia, in the experiment on MDA-N, with MDA-MB-435 and in the experiment on SW-620 colon was over 100 µM each time. For the same molecule, the TGI in the experiment with OVCAR-5 ovarian, with 786-0 renal and with SF-268 CNS was over 100 µM in each case.

`Cc1ccc([S@](=O)c2occc2C=O)cc1`: the TGI in the experiment with LOX IMVI melanoma was 3.93 µM; in the experiment on CCRF-CEM leukemia it was 4.4 µM; with SR leukemia, 5.08 µM; with MDA-N it was 15.1 µM; in the experiment with MDA-MB-435 it was 20.8 µM; in the experiment with SW-620 colon it was 3.63 µM. The TGI in the experiment on OVCAR-5 ovarian worked out at 34.7 µM; with 786-0 renal it was 11.3 µM; in the experiment on SF-268 CNS it was 14.9 µM.

Turning to `Cc1csc(NC23CC4CC(CC(C4)C2)C3)[n+]1C(P(=O)([O-])O)P(=O)(O)O` (centres undefined), the TGI with LOX IMVI melanoma, in the experiment with CCRF-CEM leukemia, in the experiment on SR leukemia, with MDA-N, in the experiment with MDA-MB-435 and in the experiment with SW-620 colon was over 100 µM throughout. Moreover, the TGI with OVCAR-5 ovarian, in the experiment on 786-0 renal and in the experiment on SF-268 CNS was over 100 µM throughout.

`Cc1ccc(OCC2OC(n3cnc4nc(N)nc(Cl)c43)CC2Oc2ccc(C)cc2)cc1` (centres undefined): the TGI was over 100 µM with LOX IMVI melanoma; over 100 µM in the experiment on CCRF-CEM leukemia; over 100 µM in the experiment on SR leukemia; 39.5 µM in the experiment on MDA-N; over 100 µM in the experiment on MDA-MB-435; over 100 µM in the experiment on SW-620 colon. Besides, the TGI in the experiment with OVCAR-5 ovarian was 39.7 µM; with 786-0 renal it was over 100 µM; in the experiment with SF-268 CNS it was 44.6 µM.

The values above are taken from PubChem BioAssay (NCI).
